Test results reported in patent US10017481B2, “Conformationally constrained, fully synthetic macrocyclic compounds” (POLYPHOR AG, priority 2012, dated 2018).

Tests used:
Type in all cases: in vitro ADME
[1] = Plasma stability assay, human plasma; settings: for Plasma Stability 240 min hum [% remain.]: human plasma, 10 μM, 37° C.; for half-life at 10 μM: human, plasma
Description: (§1) 5. Plasma and Metabolic Stability Assays Example compounds were dissolved in DMSO/H2O 90:10 to a final concentration of 10 mM for plasma stability determination and metabolic stability determination. The assays were conducted according to literature precedents (F. P. Guengerich, Analysis and Characterization of Enzymes; in: Principles and Methods of Toxicology, A. W. Hayes (Ed.) Raven Press: New York, 1989, 777-813; R. Singh et al., In vitro metabolism of a potent HIV-protease inhibitor (141W94) using rat, monkey and human liver S9, Rapid Commun. Mass Spectrom. 1996, 10, 1019-1026). Plasma Stability Assay Human plasma (Blutspendedienst SRK, Basel) and CD-1 mouse plasma (mixed gender pool >50 animals, Innovative Research, Calif., USA) are both sodium citrate stabilized. The assay is performed in triplicates at 10 μM compound concentration and 37° C. Samples are taken at 0, 15, 30, 60, 120 and 240 minutes and stopped by precipitation with 3 volumes of acetonitrile/formic acid 98:2 and shaking (2 minutes, 600 rpm) followed by filtration (−20 mm Hg). The filtrate is collected. The filtrate (100 μL) is evaporated and reconstituted in the suitable solvent (cf. Table 33) to be analyzed by HPLC/MS/MS. The resulting peak area counts are expressed in percent of the 0 value and used to determine the endpoint stability in % and the half life T in minutes. In order to monitor assay integrity the degradation of propantheline is assayed with every experimental set.

[2] = Plasma stability assay, CD-1 mouse plasma; settings: for Plasma Stability 240 min mouse/(rat) [% remain.]: CD-1 mouse plasma, 10 μM, 37° C.; for half-life at 10 μM: both sexes, CD-1, mouse, plasma
Description: as §1

[3] = Metabolic stability assay, human liver microsomes; settings: human microsomes, 10 μM, 37° C.; for half-life at 10 μM: both sexes, liver microsomes, 1 mg/ml protein, read-out: Metabolic Stability T ½ [min] hum
Description: (§2) 5. Plasma and Metabolic Stability Assays
(§3) Example compounds were dissolved in DMSO/H2O 90:10 to a final concentration of 10 mM for plasma stability determination and metabolic stability determination.
(§4) The assays were conducted according to literature precedents (F. P. Guengerich, Analysis and Characterization of Enzymes; in: Principles and Methods of Toxicology, A. W. Hayes (Ed.) Raven Press: New York, 1989, 777-813; R. Singh et al., In vitro metabolism of a potent HIV-protease inhibitor (141W94) using rat, monkey and human liver S9, Rapid Commun. Mass Spectrom. 1996, 10, 1019-1026).
(§5) Metabolic Stability Assay
(§6) Microsomes from a human 50 donor mixed gender pool and 1:1 mixtures of microsomes from CD-1 mouse single-gender pools are purchased from Celsis (Belgium). The enzymatic reaction is performed in a buffer containing an NADPH regeneration system and microsomes with the following end concentrations: 100 mM potassium phosphate buffer (all from Sigma), 1 mg/mL glucose-6-phosphate, 1 mg/mL β-nicotinamide adenine dinucleotide phosphate (NADP), 0.65 mg/mL magnesium chloride, 0.8 units/mL of glucose-6-phosphate dehydrogenase (prediluted with 5 mM citrate buffer), 10 μM compound and 1 mg/ml microsomal protein. Compounds are incubated at 37° C. in duplicates and samples are taken after 0, 5, 10, 20 and 60 minutes. After acetonitrile precipitation (3 volumes), shaking (2 minutes, 600 rpm) followed by centrifugation (10 minutes, 3200 g), the supernatant is dried reconstituted in the suitable solvent (cf. Table 33) and analyzed by HPLC/MS/MS. Metabolic turnover is expressed in % of the initial 0 minutes value and half life T½ (min) is calculated. Verapamil for human and propranolol for mouse are used as reference and are assayed with every experimental set.

[4] = Metabolic stability assay, CD-1 mouse microsomes; settings: CD-1 mouse microsomes, 10 μM, 37° C.; for half-life at 10 μM: both sexes, 1 mg/ml protein, read-out: Metabolic Stability T ½ [min] mouse/(rat)
Description: as §2, §3, §4, §5, §6

| Compound | Plasma Stability 240 min hum [% remain.] [1] | half-life at 10 μM [1] | Plasma Stability 240 min mouse/(rat) [% remain.] [2] | half-life at 10 μM [2] | half-life at 10 μM [3] | Metabolic Stability 60 min hum [% remain.] [3] | Metabolic Stability 60 min mouse/(rat) [% remain.] [4] | half-life at 10 μM [4] |
| --- | --- | --- | --- | --- | --- | --- | --- | --- |
| COc1ccc2c(c1)-c1cccc(c1)C(=O)N(C)[C@H](C(=O)O)CCC(=O)N[C@H](C)CO2 [Ex. 42, (10R,15S)-4-methoxy-10,16-dimethyl-12,17-dioxo-8-oxa-11,16-diazatricyclo[16.3.1.0^2,7]docosa-1(22),2,4,6,18,20-hexaene-15-carboxylic acid] | 91 % remain. | > 4 h | 100 % remain. | > 4 h | > 60 min | 100 % remain. | 100 % remain. | > 60 min |
| COc1ccc2c(c1)-c1cccc(c1)C(=O)N(C)[C@H](C(N)=O)CCC(=O)N[C@H](C)CO2 [Ex. 43, (10R,15S)-4-methoxy-10,16-dimethyl-12,17-dioxo-8-oxa-11,16-diazatricyclo[16.3.1.0^2,7]docosa-1(22),2,4,6,18,20-hexaene-15-carboxamide] | 97 % remain. | > 4 h | 63 % remain. | > 4 h | > 60 min | 100 % remain. | 83 % remain. | > 60 min |
| COc1ccc2c(c1)-c1cccc(c1)C(=O)N(C)[C@H](C(=O)Nc1ccccc1)CCC(=O)N[C@H](C)CO2 [Ex. 45, (10R,15S)-4-methoxy-10,16-dimethyl-12,17-dioxo-N-phenyl-8-oxa-11,16-diazatricyclo[16.3.1.0^2,7]docosa-1(22),2,4,6,18,20-hexaene-15-carboxamide] | 76 % remain. | > 4 h | 46 % remain. | 3.17 h | > 60 min | 66 % remain. | 73 % remain. | > 60 min |
| COc1ccc2c(c1)-c1cccc(c1)C(=O)N(C)[C@H](C(=O)N1CCCC1)CCC(=O)N[C@H](C)CO2 [Ex. 46, (10R,15S)-4-methoxy-10,16-dimethyl-15-(1-pyrrolidinylcarbonyl)-8-oxa-11,16-diazatricyclo[16.3.1.0^2,7]docosa-1(22),2,4,6,18,20-hexaene-12,17-dione] | 100 % remain. | > 4 h | 78 % remain. | > 4 h | 32 min | 26 % remain. | 71 % remain. | > 60 min |

Results, then the compound that gave them:

| Plasma Stability 240 min hum [% remain.] [1] | half-life at 10 μM [1] | Plasma Stability 240 min mouse/(rat) [% remain.] [2] | half-life at 10 μM [2] | half-life at 10 μM [3] | Metabolic Stability 60 min hum [% remain.] [3] | Metabolic Stability 60 min mouse/(rat) [% remain.] [4] | half-life at 10 μM [4] | Compound |
| --- | --- | --- | --- | --- | --- | --- | --- | --- |
| 100 % remain. | > 4 h | 83 % remain. | > 4 h | > 60 min | 68 % remain. | 77 % remain. | > 60 min | CNC(=O)[C@@H]1CCC(=O)N[C@H](C)COc2ccc(OC)cc2-c2cccc(c2)C(=O)N1C [Ex. 44, (10R,15S)-4-methoxy-N,10,16-trimethyl-12,17-dioxo-8-oxa-11,16-diazatricyclo[16.3.1.0^2,7]docosa-1(22),2,4,6,18,20-hexaene-15-carboxamide] |
| – | – | 81 % remain. | > 4 h | 56 min | 49 % remain. | 62 % remain. | > 60 min | C[C@H]1COc2cccc(c2)-c2cccc(c2)C(=O)N(C)[C@H](C(=O)NCc2cn(C)cn2)CCC(=O)N1 [Ex. 88, (9S,14S)-9,15-dimethyl-N-[(1-methyl-1H-imidazol-4-yl)methyl]-11,16-dioxo-7-oxa-10,15-diazatricyclo[15.3.1.1^2,6]docosa-1(21),2(22),3,5,17,19-hexaene-14-carboxamide] |
